Measurements taken from patent US11485742B2, “2-azaspiro[3.4]octane derivatives as M4 agonists” (NOVARTIS AG, priority 2019, dated 2022).

What was measured:
Assay type in all cases: cell-based
[1] = biological target: T1, Cloned human M1 receptor (CHRM1) (Homo sapiens, UniProt P11229); assay: CHRM1 Ca++ Flux Assay (HEK293 M1 cells, agonist mode); details: for Emax: read-out: M1 FDSS PA %; for EC50: geometric mean if tested more than once, read-out: M1 FDSS EC50
T1 construct: expressed in transfected cells; host or cells: HEK293
T1 sequence (P11229 1-460): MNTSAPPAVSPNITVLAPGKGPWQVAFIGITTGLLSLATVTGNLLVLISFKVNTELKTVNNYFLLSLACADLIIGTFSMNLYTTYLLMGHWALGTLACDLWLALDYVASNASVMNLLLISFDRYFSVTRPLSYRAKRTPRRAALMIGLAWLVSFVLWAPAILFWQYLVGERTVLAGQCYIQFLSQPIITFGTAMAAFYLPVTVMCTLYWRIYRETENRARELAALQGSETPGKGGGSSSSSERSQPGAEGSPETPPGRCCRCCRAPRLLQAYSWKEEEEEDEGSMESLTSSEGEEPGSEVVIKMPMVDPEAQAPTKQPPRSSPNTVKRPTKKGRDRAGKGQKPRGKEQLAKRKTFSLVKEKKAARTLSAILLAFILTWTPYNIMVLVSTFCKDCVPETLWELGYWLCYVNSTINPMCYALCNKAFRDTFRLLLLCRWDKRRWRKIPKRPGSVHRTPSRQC
Protocol: (§1) The above examples were characterized by measuring the intracellular mobilization of Ca^++ ions caused by signaling events mediated by the receptor. The Intra-cellular Calcium flux levels were captured by the highly sensitive Ca^++ indicator, Calcium Assay Kit (BD Biosciences; Catalog Number 640178. The fluorescent activity from all receptors were monitored by the fluorescent imager, FDSS 7000EX (Hamamatsu) over a span of 3 minutes. The change in Calcium flux was readily captured upon activation with the muscarinic orthosteric agonist, Carbachol.
Cloned human M1 receptor (CHRM1) was stably expressed in HEK293 cells and were grown and maintained in a monolayer culture with DMEM/High Glucose (Life Technologies) supplemented with 10% Fetal Bovine Serum, 1×Pen-Strep, and 0.5 mg/mL Geneticin in a humidified atmosphere (5% CO2) at 37° C. The cultures were grown to 90% confluency in T150 flasks (Corning) and washed with 1×DPBS and lifted with 0.05% Trypsin (Life Technologies). The cells were then spun (1K rpm, 3 minutes) and frozen using Recovery Cell Culture Freezing Media (Gibco Technologies). Cells were stored in liquid nitrogen and thawed a day before the assay.
Prior to the day of the assay, stable HEK293 M1 cells were thawed and plated on 384 well black walled clear bottom TC treated plates (Greiner Cat #781091) at 25K cells/well with DMEM/High Glucose supplemented with 10% FBS (Hyclone) Pen-Strep (Life Technologies) and kept overnight in a humidified atmosphere (5% CO2) at 37° C. The following day, cells were loaded with 20 uL Ca^++ dye (BD Biosciences) using Loading Buffer (HBSS +Ca/+Mg, 20 mM HEPES) and placed back in cell incubator for a minimum of 1 hour. The dye was replaced with 45 μL Assay Buffer (HBSS −Ca/−Mg, 20 mM HEPES) and kept at room temperature prior to running on cell imager. Compounds were prepared in Assay Buffer and 5 uL was added to the cells. The FDSS 7000EX (Hamamatsu) was used to acquire Ca++ traces for 3 minutes from cells treated with 11 point dose in triplicate in order to generate dose response curves in agonist mode. All compounds were serially diluted in DMSO then prepared in Assay Buffer for Ca^++ flux studies. The dose response curves were generated from the average of triplicate wells obtained from each data point and used a non-linear regression of four parameter dose response algorithm. The Percent Activity (PA) was measured to EC100 of Carbachol.
(§2) If an Example was tested more than once in an assay, then the values below represent the geometric mean of the results from each independent experiment.

[2] = biological target: T2, human cloned CHRM3 receptor (Homo sapiens, UniProt P20309); assay: CHRM3 Ca++ Flux Assay (M3_CHO cells, agonist mode); details: for Emax: read-out: M3 FDSS PA %; for EC50: agonist mode, geometric mean if tested more than once, read-out: M3 FDSS EC50
T2 construct: expressed in transfected cells; host or cells: CHO-K1 (M3_CHO)
T2 sequence (P20309 whole entry): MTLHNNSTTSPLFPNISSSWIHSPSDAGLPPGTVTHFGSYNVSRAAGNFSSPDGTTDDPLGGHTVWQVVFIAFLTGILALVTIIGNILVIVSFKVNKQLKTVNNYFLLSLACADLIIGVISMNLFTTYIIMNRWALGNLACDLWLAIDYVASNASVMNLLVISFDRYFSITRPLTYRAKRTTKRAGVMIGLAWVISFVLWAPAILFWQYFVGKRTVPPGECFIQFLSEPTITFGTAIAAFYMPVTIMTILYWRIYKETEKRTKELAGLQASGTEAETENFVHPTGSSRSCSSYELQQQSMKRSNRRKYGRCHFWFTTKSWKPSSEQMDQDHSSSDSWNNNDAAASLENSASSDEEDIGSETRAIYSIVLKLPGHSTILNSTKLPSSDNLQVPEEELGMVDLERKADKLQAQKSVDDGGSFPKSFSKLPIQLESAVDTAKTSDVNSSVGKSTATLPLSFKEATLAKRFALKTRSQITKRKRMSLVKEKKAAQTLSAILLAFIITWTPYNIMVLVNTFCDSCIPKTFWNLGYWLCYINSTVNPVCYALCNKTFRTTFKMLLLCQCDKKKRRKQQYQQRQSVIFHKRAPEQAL
Protocol: as §1
(§3) CHO-K1 cells stably expressing the human cloned CHRM3 receptor (M3_CHO cells) were grown and maintained in a monolayer culture with F12/HAM (Life Technologies) supplemented with 10% Fetal Bovine Serum, IX Pen-Strep, and 0.4 mg/mL Geneticin in a humidified atmosphere (5% CO2) at 37° C. The cultures were grown to 80-90% confluency in T150 flasks (Corning) and washed with 1×DPBS and lifted with 0.05% Trypsin (Life Technologies). The cells were then spun (1K rpm, 3 minutes) and frozen using Recovery Cell Culture Freezing Media (Gibco Technologies). Cells were stored in liquid nitrogen and thawed a day before the assay. A similar procedure was used for cells stably expressing the human cloned CHRM5 receptor (M5_CHO).
(§4) Prior to the day of the assay, stable M3_CHO or M5_CHO cells were thawed and plated on Greiner 384 well black TC treated plates at 12K cells/well in F12/DMEM supplemented with 10% FBS (Hyclone) and kept overnight in a humidified atmosphere (5% CO2) at 37° C. The next day, cells were loaded with Ca^++ dye (BD Biosciences) using Loading Buffer (HBSS +Ca/+Mg, 20 mM HEPES, 2.5 mM Probenecid) and placed back in cell incubator for a minimum of 1 hour. After incubation, the dye was replaced with Assay Buffer (HBSS −Ca/−Mg, 20 mM HEPES, 2.5 mM Probenecid) and kept at room temperature in the dark before running on cell imager. The FDSS 7000EX (Hamamatsu) was used to acquire Ca^+− traces from cells treated with 11 point dose response of compounds in triplicate in order to generate dose response curves in agonist mode. All compounds were serially diluted in DMSO then prepared in Assay Buffer for Ca^++ flux studies. The dose response curves were generated from the average of triplicate wells obtained from each data point and used a non-linear regression of four parameter dose response algorithm. The Percent Activity (PA) was measured to EC100 of Carbachol.
as §2

[3] = biological target: T3, human cloned CHRM5 receptor (Homo sapiens, UniProt P08912); assay: CHRM5 Ca++ Flux Assay (M5_CHO cells, agonist mode); details: for Emax: read-out: M5 FDSS PA %; for EC50: agonist mode, geometric mean if tested more than once, read-out: M5 FDSS EC50
T3 construct: expressed in transfected cells; host or cells: CHO (M5_CHO)
T3 sequence (P08912 1-532): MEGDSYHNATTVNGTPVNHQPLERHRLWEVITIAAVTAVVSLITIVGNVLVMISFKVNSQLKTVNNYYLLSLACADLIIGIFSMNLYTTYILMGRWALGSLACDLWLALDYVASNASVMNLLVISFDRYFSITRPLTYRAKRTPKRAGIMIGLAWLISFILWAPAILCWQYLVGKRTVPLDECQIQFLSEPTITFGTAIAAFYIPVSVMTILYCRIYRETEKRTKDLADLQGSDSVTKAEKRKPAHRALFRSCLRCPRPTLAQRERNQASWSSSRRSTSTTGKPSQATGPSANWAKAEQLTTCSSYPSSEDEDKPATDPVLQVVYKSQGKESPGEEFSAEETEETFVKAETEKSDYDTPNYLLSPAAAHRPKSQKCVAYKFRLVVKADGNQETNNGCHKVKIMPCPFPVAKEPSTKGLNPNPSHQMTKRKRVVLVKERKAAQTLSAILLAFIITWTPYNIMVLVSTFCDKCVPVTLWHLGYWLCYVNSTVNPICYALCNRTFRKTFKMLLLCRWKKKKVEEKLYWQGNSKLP
Protocol: as §1, §3, §4, §2

[4] = Percent Activity (PA) measured to EC100 of Carbachol

| SMILES | Emax ([1]; Percent Activity (PA)) [%] | EC50 [1] [µM] | Emax [2, 4] [%] | EC50 [2] [µM] | Emax [3, 4] [%] | EC50 [3] [µM] | M1 FDSS PA % ([1]; Percent Activity (PA)) [%] | M3 FDSS PA % [2, 4] [%] | M5 FDSS PA % [3, 4] [%] |
| --- | --- | --- | --- | --- | --- | --- | --- | --- | --- |
| Fc1ccc(OC[C@@H]2CCOC2)c(C2CCN([C@@H]3COC4(C3)CN(c3nncs3)C4)CC2)c1 [Example 5I, (S)-7-(4-(5-fluoro-2-(((R)-tetrahydrofuran-3-yl)methoxy)phenyl)piperidin-1-yl)-2-(1,3,4-thiadiazol-2-yl)-5-oxa-2-azaspiro[3.4]octane] | 69 | 0.775 | 0 | > 25 | 0 | > 25 | – | – | – |
| Fc1cc(F)c(O[C@@H]2CCOC2)c(C2CCN([C@@H]3COC4(C3)CN(c3nnco3)C4)CC2)c1 [Example 2CC, (S)-7-(4-(3,5-difluoro-2-(((R)-tetrahydrofuran-3-yl)oxy)phenyl)piperidin-1-yl)-2-(1,3,4-oxadiazol-2-yl)-5-oxa-2-azaspiro[3.4]octane] | 85 | 2.18 | 0 | > 25 | 0 | > 25 | – | – | – |
| CC1(C)C[C@@H](Oc2ccc(F)cc2C2CCN([C@@H]3COC4(C3)CN(c3nnco3)C4)CC2)CO1 (single isomer, unassigned) [Example 2N, (S)-7-(4-(2-(((R)-5,5-dimethyltetrahydrofuran-3-yl)oxy)-5-fluorophenyl)piperidin-1-yl)-2-(1,3,4-oxadiazol-2-yl)-5-oxa-2-azaspiro[3.4]octane or (S)-7-(4-(2-(((S)-5,5-dimethyltetrahydrofuran-3-yl)oxy)-5-fluorophenyl)piperidin-1-yl)-2-(1,3,4-oxadiazol-2-yl)-5-oxa-2-azaspiro[3.4]octane] | – | 5.09 | – | > 25 | – | > 25 | 71 | 0 | 0 |
| Fc1cc(OCC2COC2)c(C2CCN([C@@H]3COC4(C3)CN(c3ncco3)C4)CC2)cc1F [Example 4O, (S)-7-(4-(4,5-difluoro-2-(oxetan-3-ylmethoxy)phenyl)piperidin-1-yl)-2-(oxazol-2-yl)-5-oxa-2-azaspiro[3.4]octane] | 63 | 0.364 | 0 | > 25 | 0 | > 25 | – | – | – |
| Fc1ccc(OC[C@@H]2CCOC2)c(C2CCN([C@@H]3COC4(C3)CN(c3nnco3)C4)CC2)c1 [Example 1B, (S)-7-(4-(5-fluoro-2-(((R)-tetrahydrofuran-3-yl)methoxy)phenyl)piperidin-1-yl)-2-(1,3,4-oxadiazol-2-yl)-5-oxa-2-azaspiro[3.4]octane] | 72 | 0.598 | 0 | > 25 | 0 | > 25 | – | – | – |
| Fc1cc(F)c(OC2CC3(COC3)C2)c(C2CCN([C@@H]3COC4(C3)CN(c3nnco3)C4)CC2)c1 [Example 2AA, (S)-7-(4-(2-((2-oxaspiro[3.3]heptan-6-yl)oxy)-3,5-difluorophenyl)piperidin-1-yl)-2-(1,3,4-oxadiazol-2-yl)-5-oxa-2-azaspiro[3.4]octane] | 30 | 6.66 | 0 | > 25 | 0 | > 25 | – | – | – |
| Fc1ccc(O[C@@H]2CCOC2)c(C2CCN([C@@H]3COC4(C3)CN(c3ncco3)C4)CC2)c1 [Example 4D, (S)-7-(4-(5-fluoro-2-(((R)-tetrahydrofuran-3-yl)oxy)phenyl)piperidin-1-yl)-2-(oxazol-2-yl)-5-oxa-2-azaspiro[3.4]octane] | 95 | 0.741 | 0 | > 25 | 0 | > 25 | – | – | – |
| COC(C)(C)CCOc1ccc(F)cc1C1CCN([C@@H]2COC3(C2)CN(c2nncs2)C3)CC1 [Example 5N, (S)-7-(4-(5-fluoro-2-(3-methoxy-3-methylbutoxy)phenyl)piperidin-1-yl)-2-(1,3,4-thiadiazol-2-yl)-5-oxa-2-azaspiro[3.4]octane] | 68 | 2.97 | 0 | > 25 | 21 | 12.4 | – | – | – |
